Assay results as given in patent US10537652B2, “Cyclic urea compounds as granzyme B inhibitors” (viDA Therapeutics Inc., priority 2014, dated 2020).

Target: T1, GzmB (Homo sapiens, UniProt P10144)
T1 construct: purchased Froelich Lab, Northshore University Health Systems Research Institute, Evanston, Ill., USA
Assay: Inhibition of Fibronectin Cleavage by GzmB (Example D7)
Type: biochemical
Settings: 20 nM granzyme B, 30° C.; for inhibition at 0.62 µM: inhibitor 0.62 uM, read-out: Percent Inhibition at Inhibitor Concentration 0.62 uM; for inhibition at 5.56 µM: inhibitor 5.56 uM, read-out: Percent Inhibition at Inhibitor Concentration 5.56 uM; for inhibition at 50 µM: inhibitor 50 uM, read-out: Percent Inhibition at Inhibitor Concentration 50 uM
Method: Black, 96 well high-binding assay plates (Griener Bio-one) were treated overnight at 4° C. with 40 uL of 8 ug/mL Hilyte Fluor 488 labeled Fibronectin (Cytoskeleton, Inc). After fibronectin coating, plates were washed 3 times in buffer (20 mM Tris-HCl, pH 7.4, 20 mM NaCl) then once with granzyme B assay buffer (50 mM HEPES, pH 7.5, 0.1% CHAPS). After washing, 50 uL of granzyme B assay buffer was added to each fibronectin-coated well. In a separate non-binding 96 well assay plate 5 uL of 20X inhibitor serial dilution stocks were added to 45 uL of 2.22x GzmB mix to establish inhibition (enzyme/inhibitor mixes were all prepared in granzyme B assay buffer and were incubated first at room temperature for 20 minutes, then at 30° C. for another 10 minutes). After incubation, 50 uL of this 2x enzyme/inhibitor mix was added to the corresponding coated well to initiate fibronectin cleavage (20 nM final granzyme B concentration, 8-point inhibitor dilution series starting at 50 uM). The assay was conducted at 30° C. in the TECAN plate reader (TECAN INFINITE® M1000 Pro), which was programmed to monitor the kinetic fluorescence polarization signal (filter set Ex/Em 470 nm/527 nm) with readings taken every minute, for 1 hour. Proteolytic activity was evaluated as the rate of fluorescence enhancement in the parallel emission over the linear range of the reaction. % Inhibition values were calculated from assay controls and the resulting data is shown in Table 6.

T1 sequence (P10144 21-247): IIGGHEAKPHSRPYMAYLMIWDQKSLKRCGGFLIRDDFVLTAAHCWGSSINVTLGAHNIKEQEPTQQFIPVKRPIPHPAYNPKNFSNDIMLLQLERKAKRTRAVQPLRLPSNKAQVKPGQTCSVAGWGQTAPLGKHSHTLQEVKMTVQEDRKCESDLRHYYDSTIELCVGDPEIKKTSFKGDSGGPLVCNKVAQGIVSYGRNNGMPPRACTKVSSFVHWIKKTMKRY

With `CC[C@H](C)[C@H](NC(=O)CCC(=O)O)C(=O)NCC(=O)N1C(=O)NC[C@H]1C(=O)NCc1nn[nH]n1` [Compound C1, 4-(((2S,3S)-1-((2-((S)-5-(((2H-tetrazol-5-yl)methyl)carbamoyl)-2-oxoimidazolidin-1-yl)-2-oxoethyl)amino)-3-methyl-1-oxopentan-2-yl)amino)-4-oxobutanoic acid] as the molecule, how does the inhibition at 0.62 µM read?
Its inhibition at 0.62 µM is 39%.

And the inhibition at 5.56 µM?
Its inhibition at 5.56 µM is 69%.

And the inhibition at 50 µM?
The inhibition at 50 µM was 86%.

For `CC[C@H](C)[C@H](NC(=O)CCC(=O)O)C(=O)NCC(=O)N1C(=O)N(C2CCCCC2)C[C@H]1C(=O)NCc1nn[nH]n1` [Compound C2, 4-(((2S,3S)-1-((2-((S)-5-(((2H-TETRAZOL-5-YL)METHYL)CARBAMOYL)-3-CYCLOHEXYL-2-OXOIMIDAZOLIDIN-1-YL)-2-OXOETHYL)AMINO)-3-METHYL-1-OXOPENTAN-2-YL)AMINO)-4-OXOBUTANOIC ACID], which inhibition at 0.62 µM is on record?
Its inhibition at 0.62 µM is 75%.

And the inhibition at 5.56 µM?
The inhibition at 5.56 µM was 91%.

And the inhibition at 50 µM?
Its inhibition at 50 µM is 96%.
